Assay results as given in patent US8471005B2 (Cephalon, Inc., priority 2008, dated 2013).
Where two headings read alike, the source gives them in different places.

Key:
ALK = target: T1, ALK (Homo sapiens, UniProt Q9UM73); assay: ALK Kinase Assay (ELISA/TRF, PLC-γ substrate); assay type: biochemical; conditions: read-out: ALK Potency
T1 construct: host or cells: baculovirus expression system
Procedure, shortened: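 First, plates are coated with substrate (phospholipase C-γ, 10 μg/mL, TBS). Next, 30 ng/ml ALK initiates phosphorylation for 15 min at 37° C. Then Eu-N1 PT66 antibody is added for detection, and a nonlinear dose-response fit of percent inhibition yields IC50.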

JAK2 = target: T2, JAK2 (Homo sapiens, UniProt O60674); assay: Recombinant Human JAK2 Kinase Assay (TRF); assay type: biochemical; conditions: read-out: JAK2 Potency
T2 construct: host or cells: baculovirus expression system
Procedure, shortened: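 Europium-labelled PY100 antibody reported tyrosine phosphorylation of a Neutravidin-captured biotinyl 15-mer peptide by JAK2 (baculovirus-expressed, 15 ng/ml). Conditions: 20 mM HEPES pH 7.2, 0.2 μM ATP, 1 mM MnCl2, 0.1% BSA, DMSO 2.5% final, 20 min at room temperature.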

[1] = ALK kinase inhibition, 1 μM ATP
[2] = JAK2 kinase inhibition, 0.2 μM ATP

T2 sequence (O60674 whole entry): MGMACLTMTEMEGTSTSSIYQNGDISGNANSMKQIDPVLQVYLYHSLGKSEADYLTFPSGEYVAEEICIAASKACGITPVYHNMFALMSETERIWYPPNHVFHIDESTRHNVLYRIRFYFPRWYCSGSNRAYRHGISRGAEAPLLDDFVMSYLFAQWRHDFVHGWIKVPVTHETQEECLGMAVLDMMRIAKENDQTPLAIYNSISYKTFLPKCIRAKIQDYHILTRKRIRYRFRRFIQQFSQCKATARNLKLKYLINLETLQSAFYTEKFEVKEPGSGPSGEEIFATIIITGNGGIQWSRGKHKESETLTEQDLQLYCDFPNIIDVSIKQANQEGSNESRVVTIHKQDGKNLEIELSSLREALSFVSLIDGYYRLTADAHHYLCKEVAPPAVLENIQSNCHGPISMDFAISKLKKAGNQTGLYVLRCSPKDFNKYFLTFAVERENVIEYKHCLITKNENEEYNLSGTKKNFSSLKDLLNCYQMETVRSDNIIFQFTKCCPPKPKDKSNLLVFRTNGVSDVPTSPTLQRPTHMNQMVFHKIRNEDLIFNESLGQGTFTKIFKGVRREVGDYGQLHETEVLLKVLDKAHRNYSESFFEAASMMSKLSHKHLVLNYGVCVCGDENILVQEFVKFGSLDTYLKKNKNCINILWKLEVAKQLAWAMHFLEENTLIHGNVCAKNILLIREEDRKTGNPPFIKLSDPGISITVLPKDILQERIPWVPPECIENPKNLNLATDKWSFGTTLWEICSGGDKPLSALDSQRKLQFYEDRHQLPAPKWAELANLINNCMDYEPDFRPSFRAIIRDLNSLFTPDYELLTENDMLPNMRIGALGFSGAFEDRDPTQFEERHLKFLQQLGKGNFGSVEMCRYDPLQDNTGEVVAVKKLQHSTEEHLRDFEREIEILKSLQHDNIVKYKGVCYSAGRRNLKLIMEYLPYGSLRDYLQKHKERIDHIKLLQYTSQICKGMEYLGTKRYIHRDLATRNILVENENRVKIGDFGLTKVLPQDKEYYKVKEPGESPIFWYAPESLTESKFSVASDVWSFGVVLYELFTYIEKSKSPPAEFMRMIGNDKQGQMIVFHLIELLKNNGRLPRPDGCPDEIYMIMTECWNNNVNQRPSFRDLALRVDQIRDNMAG
T1 sequence (Q9UM73 19-1620): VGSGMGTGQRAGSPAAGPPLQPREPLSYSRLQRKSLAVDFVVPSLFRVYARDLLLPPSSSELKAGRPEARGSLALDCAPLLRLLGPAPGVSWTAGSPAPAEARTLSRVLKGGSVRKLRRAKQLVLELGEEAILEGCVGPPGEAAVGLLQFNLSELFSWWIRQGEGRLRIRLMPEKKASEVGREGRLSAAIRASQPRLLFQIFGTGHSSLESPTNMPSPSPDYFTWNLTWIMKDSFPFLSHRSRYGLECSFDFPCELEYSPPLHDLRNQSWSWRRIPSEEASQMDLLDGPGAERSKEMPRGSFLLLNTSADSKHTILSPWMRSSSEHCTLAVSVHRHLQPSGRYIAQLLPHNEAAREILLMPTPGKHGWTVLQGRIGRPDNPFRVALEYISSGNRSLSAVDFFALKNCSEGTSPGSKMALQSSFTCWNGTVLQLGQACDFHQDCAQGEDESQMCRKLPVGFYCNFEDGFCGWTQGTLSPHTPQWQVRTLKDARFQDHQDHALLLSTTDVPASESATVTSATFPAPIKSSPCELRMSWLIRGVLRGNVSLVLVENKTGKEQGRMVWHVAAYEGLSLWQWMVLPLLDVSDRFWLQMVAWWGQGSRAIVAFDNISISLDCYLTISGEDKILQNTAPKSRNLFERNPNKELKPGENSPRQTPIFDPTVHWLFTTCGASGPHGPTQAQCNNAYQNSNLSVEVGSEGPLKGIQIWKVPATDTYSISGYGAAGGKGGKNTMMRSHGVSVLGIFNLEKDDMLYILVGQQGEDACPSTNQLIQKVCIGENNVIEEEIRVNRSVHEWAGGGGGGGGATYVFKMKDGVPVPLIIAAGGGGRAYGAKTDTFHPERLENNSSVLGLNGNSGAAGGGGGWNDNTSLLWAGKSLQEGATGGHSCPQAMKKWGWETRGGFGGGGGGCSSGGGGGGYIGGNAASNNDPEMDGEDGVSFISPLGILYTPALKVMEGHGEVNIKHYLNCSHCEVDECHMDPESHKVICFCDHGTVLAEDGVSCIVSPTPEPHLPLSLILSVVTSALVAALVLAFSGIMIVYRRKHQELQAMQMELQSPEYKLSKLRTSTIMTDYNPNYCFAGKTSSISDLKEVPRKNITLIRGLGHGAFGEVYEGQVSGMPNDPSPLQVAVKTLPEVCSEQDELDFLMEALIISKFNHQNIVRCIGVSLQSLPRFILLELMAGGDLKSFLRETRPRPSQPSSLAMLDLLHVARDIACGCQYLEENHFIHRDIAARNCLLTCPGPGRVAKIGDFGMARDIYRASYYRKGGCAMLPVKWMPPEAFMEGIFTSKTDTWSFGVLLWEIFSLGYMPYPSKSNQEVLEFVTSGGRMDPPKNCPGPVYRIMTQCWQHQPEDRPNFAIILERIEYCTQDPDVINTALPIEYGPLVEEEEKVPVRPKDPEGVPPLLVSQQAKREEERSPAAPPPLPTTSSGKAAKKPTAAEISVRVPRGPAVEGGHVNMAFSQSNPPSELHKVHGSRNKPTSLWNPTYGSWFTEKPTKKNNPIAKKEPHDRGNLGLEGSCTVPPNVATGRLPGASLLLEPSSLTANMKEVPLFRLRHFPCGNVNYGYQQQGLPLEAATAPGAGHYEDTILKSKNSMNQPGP

IC50 (ALK; ALK Kinase Inhibition) [nM] | IC50 (JAK2; JAK2 Kinase Inhibition) [nM] | IC50 (ALK; [1]) [nM] | IC50 (JAK2; [2]) [nM] | Compound
 |  | < 100 | 1000 to 10000 | COc1ccc(-c2ccc3cnc(Nc4ccc(C5CCN(CC(N)=O)CC5)cc4OC)nn23)c(N(C)S(C)(=O)=O)c1 [Example 1273, 2-[4-(4-{7-[2-(Methanesulfonyl-methyl-amino)-4-methoxy-phenyl]-pyrrolo[2,1-f][1,2,4]triazin-2-ylamino}-3-methoxy-phenyl)-piperidin-1-yl]-acetamide]
100 to 1000 | < 100 |  |  | COc1ccc(-c2ccc3cnc(Nc4ccc5nc(CN6CCN(C)CC6)[nH]c5c4)nn23)cn1 [Example 1527, [7-(6-Methoxy-pyridin-3-yl)-pyrrolo[2,1-f][1,2,4]triazin-2-yl]-[2-(4-methyl-piperazin-1-ylmethyl)-3H-benzimidazol-5-yl]-amine]
< 100 | 1000 to 10000 |  |  | COc1cc(C2CCN(CC(N)=O)CC2)ccc1Nc1ncc2ccc(-c3cccc4c3OC(F)(F)O4)n2n1 [Example 1533, 2-(4-{4-[7-(2,2-Difluoro-benzo[1,3]dioxol-4-yl)-pyrrolo[2,1-f][1,2,4]triazin-2-ylamino]-3-methoxy-phenyl}-piperidin-1-yl)-acetamide]
 |  | < 100 | < 100 | COc1cc(N2CCN(C[C@H](C)O)CC2)ccc1Nc1ncc2ccc(-c3cc(Cl)ccc3OC)n2n1 [Example 755, (S)-1-(4-{4-[7-(5-Chloro-2-methoxy-phenyl)-pyrrolo[2,1-f][1,2,4]triazin-2-ylamino]-3-methoxy-phenyl}-piperazin-1-yl)-propan-2-ol]
 |  | 1000 to 10000 | < 100 | COc1ccccc1-c1ccc2cnc(Nc3ccc4c(c3)N(C)CCC4)nn12 [Example 982, [7-(2-Methoxy-phenyl)-pyrrolo[2,1-f][1,2,4]triazin-2-yl]-(1-methyl-1,2,3,4-tetrahydro-quinolin-7-yl)-amine]
1000 to 10000 | < 100 |  |  | CC(=O)N1CCc2ccc(Nc3ncc4ccc(-c5cccc(NS(C)(=O)=O)c5)n4n3)cc21 [Example 1367, N-{3-[2-(1-Acetyl-2,3-dihydro-1H-indol-6-ylamino)-pyrrolo[2,1-f][1,2,4]triazin-7-yl]-phenyl}-methanesulfonamide]
 |  | < 100 | 100 to 1000 | COc1cc(Cn2ccnc2C)ccc1Nc1ncc2ccc(-c3ccccc3OC)n2n1 [Example 506, [2-Methoxy-4-(2-methyl-imidazol-1-ylmethyl)-phenyl]-[7-(2-methoxy-phenyl)-pyrrolo[2,1-f][1,2,4]triazin-2-yl]-amine]
100 to 1000 | < 100 |  |  | CN(c1ccccc1-c1ccc2cnc(Nc3ccc(N4CCN(CC(N)=O)CC4)c(F)c3)nn12)S(C)(=O)=O [Example 1422, 2-[4-(2-Fluoro-4-{7-[2-(methanesulfonyl-methyl-amino)-phenyl]-pyrrolo[2,1-f][1,2,4]triazin-2-ylamino}-phenyl)-piperazin-1-yl]-acetamide]
 |  | < 100 | < 100 | CN1CCc2cc(Nc3ncc4ccc(-c5cccc(S(=O)(=O)NC(C)(C)C)c5)n4n3)ccc2C1 [Example 921, N-tert-Butyl-3-[2-(2-methyl-1,2,3,4-tetrahydro-isoquinolin-6-ylamino)-pyrrolo[2,1-f][1,2,4]triazin-7-yl]-benzenesulfonamide]
< 100 | 1000 to 10000 |  |  | COc1cc(C2CCN(CC(N)=O)CC2)ccc1Nc1ncc2c(Cl)cc(-c3ccccc3N(C)S(C)(=O)=O)n2n1 [Example 1554, 2-[4-(4-{5-Chloro-7-[2-(methanesulfonyl-methyl-amino)-phenyl]-pyrrolo[2,1-f][1,2,4]triazin-2-ylamino}-3-methoxy-phenyl)-piperidin-1-yl]-acetamide]
 |  | < 100 | < 100 | COc1cc(C2CCN(CC(N)=O)C2)ccc1Nc1ncc2ccc(-c3ccccc3OC)n2n1 (racemic) [Example 836, (±)-2-(3-{3-Methoxy-4-[7-(2-methoxy-phenyl)-pyrrolo[2,1-f][1,2,4]triazin-2-ylamino]-phenyl}-pyrrolidin-1-yl)-acetamide]
1000 to 10000 | < 100 |  |  | Cn1cc(-c2ccc3cnc(Nc4cccc(NS(C)(=O)=O)c4)nn23)cn1 [Example 1389, N-{3-[7-(1-Methyl-1H-pyrazol-4-yl)-pyrrolo[2,1-f][1,2,4]triazin-2-ylamino]-phenyl}-methanesulfonamide]
 |  | < 100 | < 100 | COc1cc(N2CCC(N3CCOCC3)CC2)ccc1Nc1ncc2ccc(-c3ccccc3C#N)n2n1 [Example 511, 2-{2-[2-Methoxy-4-(4-morpholin-4-yl-piperidin-1-yl)-phenylamino]-pyrrolo[2,1-f][1,2,4]triazin-7-yl}-benzonitrile]
 |  | > 10000 | < 100 | CC(C)(C)NS(=O)(=O)c1cccc(-c2ccc3cnc(Nc4ccc(C5CCN(C(=O)OC(C)(C)C)CC5)cc4)nn23)c1 [Example 1058, 4-{4-[7-(3-tert-Butylsulfamoyl-phenyl)-pyrrolo[2,1-f][1,2,4]triazin-2-ylamino]-phenyl}-piperidine-1-carboxylic acid tert-butyl ester]
 |  | < 100 | < 100 | CS(=O)(=O)Nc1cccc(-c2ccc3cnc(Nc4ccc(C5CCN(CCO)CC5)cc4)nn23)c1 [Example 958, N-[3-(2-{4-[1-(2-Hydroxy-ethyl)-piperidin-4-yl]-phenylamino}-pyrrolo[2,1-f][1,2,4]triazin-7-yl)-phenyl]-methanesulfonamide]
100 to 1000 | < 100 |  |  | CC(C)(C)NS(=O)(=O)c1cccc(-c2ccc3cnc(Nc4cccc(-n5cnnc5)c4)nn23)c1 [Example 1391, N-tert-Butyl-3-[2-(3-[1,2,4]triazol-4-yl-phenylamino)-pyrrolo[2,1-f][1,2,4]triazin-7-yl]-benzenesulfonamide]
 |  | < 100 | 100 to 1000 | COc1cc(C2CCN(C(=O)CN(C)C)CC2)ccc1Nc1ncc2ccc(-c3ccccc3OC)n2n1 [Example 815, 2-Dimethylamino-1-(4-{3-methoxy-4-[7-(2-methoxy-phenyl)-pyrrolo[2,1-f][1,2,4]triazin-2-ylamino]-phenyl}-piperidin-1-yl)-ethanone]

The remaining lines, values behind:

Compound | IC50 (ALK; ALK Kinase Inhibition) [nM] | IC50 (JAK2; JAK2 Kinase Inhibition) [nM] | IC50 (ALK; [1]) [nM] | IC50 (JAK2; [2]) [nM]
COc1cc(N2CCC[C@@H](C(=O)N3CCN(C)CC3)C2)ccc1Nc1ncc2ccc(-c3ccccc3N(C)S(C)(=O)=O)n2n1 [Example 462, N-[2-(2-{2-Methoxy-4-[(R)-3-(4-methyl-piperazine-1-carbonyl)-piperidin-1-yl]-phenylamino}-pyrrolo[2,1-f][1,2,4]triazin-7-yl)-phenyl]-N-methyl-methanesulfonamide] | < 100 | 100 to 1000 |  | 
COc1cc(N2CCC(N3CC[C@@H](O)C3)CC2)ccc1Nc1ncc2ccc(-c3ccccc3OC)n2n1 [Example 479, (R)-1-(1-{3-Methoxy-4-[7-(2-methoxy-phenyl)-pyrrolo[2,1-f][1,2,4]triazin-2-ylamino]-phenyl}-piperidin-4-yl)-pyrrolidin-3-ol] |  |  | < 100 | < 100
COc1cccc(-c2ccc3cnc(Nc4ccc(N5CCOCC5)cc4)nn23)c1 [Example 422, [7-(3-Methoxy-phenyl)-pyrrolo[2,1-f][1,2,4]triazin-2-yl]-(4-morpholin-4-yl-phenyl)-amine] | > 10000 | < 100 |  | 
[7-(4-Methanesulfonyl-phenyl)-pyrrolo[2,1-f][1,2,4]triazin-2-yl]-(4-piperidin-1-yl-phenyl)-amine [Example 85] | > 10000 | < 100 |  | 
C[C@H](O)CN1CCN(c2ccc(Nc3ncc4ccc(-c5cccc(S(=O)(=O)NC(C)(C)C)c5)n4n3)cc2)CC1 [Example 427, N-tert-Butyl-3-(2-{4-[4-((S)-2-hydroxy-propyl)-piperazin-1-yl]-phenylamino}-pyrrolo[2,1-f][1,2,4]triazin-7-yl)-benzenesulfonamide] | < 100 | < 100 |  | 
[7-(4-Methanesulfonyl-phenyl)-pyrrolo[2,1-f][1,2,4]triazin-2-yl]-[2-methoxy-4-(4-methyl-piperazin-1-yl)-phenyl]-amine [Example 1126] |  |  | < 100 | < 100
C[C@H](O)CN1CCN(c2ccc(Nc3ncc4ccc(-c5ccc(S(C)(=O)=O)cc5)n4n3)cc2)CC1 [Example 205, (S)-1-(4-{4-[7-(4-Methanesulfonyl-phenyl)-pyrrolo[2,1-f][1,2,4]triazin-2-ylamino]-phenyl}-piperazin-1-yl)-propan-2-ol] | 100 to 1000 | < 100 |  | 
Clc1cccc(-c2ccc3cnc(Nc4cccc(N5CCOCC5)c4)nn23)c1 [Example 148, [7-(3-Chloro-phenyl)-pyrrolo[2,1-f][1,2,4]triazin-2-yl]-(3-morpholin-4-yl-phenyl)-amine] | 1000 to 10000 | < 100 |  | 
CN(c1ccccc1-c1ccc2cnc(Nc3ccc(F)c(N4CCOCC4)c3)nn12)S(C)(=O)=O [Example 388, N-{2-[2-(4-Fluoro-3-morpholin-4-yl-phenylamino)-pyrrolo[2,1-f][1,2,4]triazin-7-yl]-phenyl}-N-methyl-methanesulfonamide] | 100 to 1000 | < 100 |  | 
COc1ccc(Cl)cc1-c1ccc2cnc(Nc3ccc(N4CCN(C)CC4)cc3)nn12 [Example 17, [7-(5-Chloro-2-methoxy-phenyl)-pyrrolo[2,1-f][1,2,4]triazin-2-yl]-[4-(4-methyl-piperazin-1-yl)-phenyl]-amine] | < 100 | < 100 |  | 
N-[2-(2-{4-[4-(2-Hydroxy-ethyl)-piperazin-1-yl]-phenylamino}-pyrrolo[2,1-f][1,2,4]triazin-7-yl)-phenyl]-N-methyl-methanesulfonamide [Example 1171] |  |  | < 100 | < 100
